Measurements: US11331272B2, “Hyperstabilized liposomes increase targeting of mitotic cells” (TEMASEK LIFE SCIENCES LABORATORY LIMITED, priority 2017, dated 2022)

Tests used:
HCT116 xenografts = assay: Efficacy study in HCT116 xenografted mice (tumor volume, complete responses, survival); format: in vivo, NCr Nude mice; conditions: free 100 mg/kg, responders/treated mice
Protocol: All animal experiments were approved by the Institutional Animal Care and Use Committee of Temasek Life Sciences Laboratory and National University of Singapore (NUS). Female NCr Nude mice (Ages 5-8 weeks) were purchased from (Singapore/InVivos) and subcutaneously xenografted with HCT116 cells. HCT116 cells were grown as described above in 600 cm^2 dishes (Corning) and each dish was used to graft 5 mice when confluence reached ˜80%.
(§1) Free BI 2536 (dissolved in 0.1 N HCl, saline) or the indicated liposomal BI 2536 formulations were administered by slow tail vein injection 7 days post grafting with HCT116. Tumor volumes were at least 150 mm^3 and calculated using length×width^2×0.5. All measurements were performed using vernier calipers and mice were weighed every other day. Mice were subcutaneously hydrated with 1 ml Hartmann's solution daily for 5 days post treatment to ensure that the mice were fully hydrated.

[1] = Hexanol extraction of BI 2536 from salt solutions; format: physicochemical; conditions: pH 3
Protocol: BI 2536 was first dissolved in ethanol and then coated onto 1.5 ml microfuge tubes by spin drying. BI 2636-coated tubes were then further dried overnight under high vacuum before resuspending in the indicated salt solutions to achieve a final concentration of 500 μM. To ensure complete dissolution of coated BI2536, tubes were briefly vortexed and subjected to bath sonication for 1 minute before being used for characterization.
BI 2536 from 1 ml of the indicated buffer was extracted with 100 μl 1-hexanol (Merck) by brief shaking for 1 hour. Hexanol and buffer layers were separated by brief centrifugation and 20 ul of the hexanol layer was analyzed for fluorescence intensity using the Tecan plate reader (Ex: 330 nm, Em: 370 nm).

[2] = Toxicity / body weight in HCT116 xenografted mice; conditions: NCr Nude, mouse, in vivo, intravenous, tail vein injection, read-out: maximum tolerated dose
Protocol: as §1

## CC[C@@H]1C(=O)N(C)c2cnc(Nc3ccc(C(=O)NC4CCN(C)CC4)cc3OC)nc2N1C1CCCC1 [Free Drug, BI 2536]
HCT116 xenografts; doses at days 0 and 7, liposomal 340 mg/kg
  Complete Responses, Double Dose: 0/8
HCT116 xenografts; single dose at day 0, liposomal 340 mg/kg
  Complete Responses, Single Dose: 0/10
[1]; anions M, C, H
  hexanol-extraction efficiency as anion concentration rises: decreased
[1]; anions P, A
  hexanol-extraction efficiency as anion concentration rises: increased
[2]
  MTD: 100 mg/kg
